Measurements from patent US12052991B2, “Substituted pyridinyloxybenzenes and salts thereof and use thereof as herbicidal agents” (Bayer Aktiengesellschaft, priority 2018, dated 2024).

Legend:
Type in all cases: in vivo
Stellaria media (STEME) [1] = assay: Herbicidal pre-emergence action, test C (Table C8); conditions: visual scoring after about 3 weeks, 100% = plants have died, 0% = like control plants
Outline: (§1)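 Application rates of 1280 or 320 g/ha were delivered as WP or EC formulations in water with 0.5% additive, 600 L/ha, onto soil covering freshly sown seeds in sandy loam. Pots stayed under good greenhouse growth conditions, and efficacy was rated as visual percent after about 3 weeks.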

Stellaria media (STEME) [2] = assay: Herbicidal post-emergence action (Table B8); conditions: visual rating about 3 weeks after treatment, 100% = plants have died, 0% = like control plants
Outline: (§2)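 Activity was scored visually against untreated plants roughly 3 weeks after treatment, 0% meaning like control and 100% plant death. Application was post-emergence onto green parts at the one-leaf stage, as aqueous suspension/emulsion with 0.5% additive, 600 l/ha, delivering 1280 or 320 g/ha to greenhouse plants in sandy loam.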

[3] = tested on: Amaranthus retroflexus (AMARE); assay: Herbicidal pre-emergence action, test C (Table C6); conditions: visual scoring after about 3 weeks, 100% = plants have died, 0% = like control plants
Outline: as §1

[4] = tested on: Abutilon theophrasti (ABUTH); assay: Herbicidal pre-emergence action, test C (Table C5); conditions: visual scoring after about 3 weeks, 100% = plants have died, 0% = like control plants
Outline: as §1

[5] = tested on: Amaranthus retroflexus (AMARE); assay: Herbicidal post-emergence action (Table B6); conditions: visual rating about 3 weeks after treatment, 100% = plants have died, 0% = like control plants
Outline: as §2

[6] = tested on: harmful plants ABUTH, AMARE, ECHCG, LOLRI, MATIN, POAAN, SETVI, STEME, ALOMY, DIGSA, KCHSC and VERPE; assay: Herbicidal pre-emergence action (test C), summary of Tables C1-C12; conditions: application rate of 1280 or 320 g of active ingredient per hectare; summary in words
Outline: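 Visual % damage versus untreated plants (0% = like control, 100% = died) was scored after about 3 weeks in the greenhouse. Before emergence, seeds sown in sandy loam got a soil-surface spray of compound as WP or EC plus 0.5% additive, using 600 L/ha water at rates of 1280 or 320 g/ha.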

Poa annua (POAAN) [7] = assay: Herbicidal pre-emergence action, test C (Table C3); conditions: visual scoring after about 3 weeks, 100% = plants have died, 0% = like control plants
Outline: as §1

[8] = tested on: harmful plants ABUTH, AMARE, ECHCG, LOLRI, MATIN, POAAN, SETVI, STEME, ALOMY, DIGSA, KCHSC and VERPE; assay: Herbicidal post-emergence action, summary of Tables B1-B12; conditions: application rate of 1280 or 320 g of active ingredient per hectare; summary in words
Outline: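 Activity scored by eye roughly 3 weeks post-treatment against untreated plants, from 0% (no effect) to 100% (plants dead). Application rates were 1280 or 320 g/ha, as aqueous WP/EC spray plus 0.5% additive at 600 L/ha, onto one-leaf-stage weeds grown 2–3 weeks in sandy loam.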

[9] = tested on: Echinochloa crus-galli (ECHCG); assay: Herbicidal pre-emergence action, test C (Table C1); conditions: visual scoring after about 3 weeks, 100% = plants have died, 0% = like control plants
Outline: as §1

Setaria viridis (SETVI) [10] = assay: Herbicidal pre-emergence action, test C (Table C4); conditions: visual scoring after about 3 weeks, 100% = plants have died, 0% = like control plants
Outline: as §1

Lolium rigidum (LOLRI) [11] = assay: Herbicidal pre-emergence action, test C (Table C2); conditions: visual scoring after about 3 weeks, 100% = plants have died, 0% = like control plants
Outline: as §1

Lolium rigidum (LOLRI) [12] = assay: Herbicidal post-emergence action (Table B2); conditions: rated visually after about 3 weeks, 100% = plants have died, 0% = like control plants
Outline: as §2

[13] = tested on: Abutilon theophrasti (ABUTH); assay: Herbicidal post-emergence action (Table B5); conditions: rated visually after about 3 weeks, 100% = plants have died, 0% = like control plants
Outline: as §2

[14] = tested on: Echinochloa crus-galli (ECHCG); assay: Herbicidal post-emergence action (Table B1); conditions: rated visually after about 3 weeks, 100% = plants have died, 0% = like control plants
Outline: as §2

Poa annua (POAAN) [15] = assay: Herbicidal post-emergence action (Table B3); conditions: rated visually after about 3 weeks, 100% = plants have died, 0% = like control plants
Outline: as §2

Setaria viridis (SETVI) [16] = assay: Herbicidal post-emergence action (Table B4); conditions: rated visually after about 3 weeks, 100% = plants have died, 0% = like control plants
Outline: as §2

Compound | Pre-emergence action against Stellaria media (STEME) (Stellaria media (STEME) [1]; dosage 320 g/ha) [%] | Pre-emergence action against Stellaria media (STEME) (Stellaria media (STEME) [1]; dosage 1280 g/ha) [%] | Post-emergence action against Stellaria media (STEME) (Stellaria media (STEME) [2]; dosage 320 g/ha) [%] | Post-emergence action against Stellaria media (STEME) (Stellaria media (STEME) [2]; dosage 1280 g/ha) [%] | Pre-emergence action against Amaranthus retroflexus (AMARE) ([3]; dosage 320 g/ha) [%] | Pre-emergence action against Amaranthus retroflexus (AMARE) ([3]; dosage 1280 g/ha) [%] | Pre-emergence action against Abutilon theophrasti (ABUTH) ([4]; dosage 1280 g/ha) [%] | Post-emergence action against Amaranthus retroflexus (AMARE) ([5]; dosage 320 g/ha) [%] | Post-emergence action against Amaranthus retroflexus (AMARE) ([5]; dosage 1280 g/ha) [%] | herbicidal activity against the harmful plants of Tables C1-C12 in pre-emergence treatment [6] | Pre-emergence action against Poa annua (POAAN) (Poa annua (POAAN) [7]; dosage 320 g/ha) [%] | Pre-emergence action against Poa annua (POAAN) (Poa annua (POAAN) [7]; dosage 1280 g/ha) [%] | herbicidal activity against the harmful plants of Tables B1-B12 in post-emergence treatment [8] | Pre-emergence action against Echinochloa crus-galli (ECHCG) ([9]; dosage 1280 g/ha) [%] | Pre-emergence action against Setaria viridis (SETVI) (Setaria viridis (SETVI) [10]; dosage 320 g/ha) [%] | Pre-emergence action against Setaria viridis (SETVI) (Setaria viridis (SETVI) [10]; dosage 1280 g/ha) [%] | Pre-emergence action against Lolium rigidum (LOLRI) (Lolium rigidum (LOLRI) [11]; dosage 1280 g/ha) [%] | Post-emergence action against Lolium rigidum (LOLRI) (Lolium rigidum (LOLRI) [12]; 1280 g/ha) [%] | Post-emergence action against Abutilon theophrasti (ABUTH) ([13]; 320 g/ha) [%] | Post-emergence action against Abutilon theophrasti (ABUTH) ([13]; 1280 g/ha) [%] | further results
Cc1cccc(Oc2ccc(Cl)cn2)c1-c1cc(C(F)F)no1 [Example 1-18, 5-[2-[(5-Chloro-2-pyridyl)oxy]-6-methylphenyl]-3-(difluoromethyl)isoxazole] | 100 | 100 | 100 | 100 | 100 | 100 | 100 | 100 | 100 | very good herbicidal activity | 90 | 100 | very good herbicidal activity | 100 | 100 | 100 | 90 | 100 | 100 | 100 | Pre-emergence action against Abutilon theophrasti (ABUTH) ([4]; dosage 320 g/ha): 100%; Pre-emergence action against Echinochloa crus-galli (ECHCG) ([9]; dosage 320 g/ha): 90%; Post-emergence action against Lolium rigidum (LOLRI) (Lolium rigidum (LOLRI) [12]; 320 g/ha): 90%; Post-emergence action against Echinochloa crus-galli (ECHCG) ([14]; 320 g/ha): 100%; Post-emergence action against Echinochloa crus-galli (ECHCG) ([14]; 1280 g/ha): 100%; Post-emergence action against Poa annua (POAAN) (Poa annua (POAAN) [15]; 320 g/ha): 100%; Post-emergence action against Poa annua (POAAN) (Poa annua (POAAN) [15]; 1280 g/ha): 100%; Post-emergence action against Setaria viridis (SETVI) (Setaria viridis (SETVI) [16]; 320 g/ha): 100%; Post-emergence action against Setaria viridis (SETVI) (Setaria viridis (SETVI) [16]; 1280 g/ha): 100%
Fc1cc(Cl)cnc1Oc1cccc(F)c1-c1cc(C(F)F)no1 [Example 1-19] | 100 | 100 | 100 | 100 | 100 | 100 | 100 | 100 | 100 | very good herbicidal activity | 100 | 100 | very good herbicidal activity | 100 | 100 | 100 | 100 | 100 | 100 | 100 | Pre-emergence action against Abutilon theophrasti (ABUTH) ([4]; dosage 320 g/ha): 100%; Pre-emergence action against Echinochloa crus-galli (ECHCG) ([9]; dosage 320 g/ha): 100%; Pre-emergence action against Lolium rigidum (LOLRI) (Lolium rigidum (LOLRI) [11]; dosage 320 g/ha): 100%; Post-emergence action against Lolium rigidum (LOLRI) (Lolium rigidum (LOLRI) [12]; 320 g/ha): 100%; Post-emergence action against Echinochloa crus-galli (ECHCG) ([14]; 320 g/ha): 100%; Post-emergence action against Echinochloa crus-galli (ECHCG) ([14]; 1280 g/ha): 100%; Post-emergence action against Poa annua (POAAN) (Poa annua (POAAN) [15]; 320 g/ha): 100%; Post-emergence action against Poa annua (POAAN) (Poa annua (POAAN) [15]; 1280 g/ha): 100%; Post-emergence action against Setaria viridis (SETVI) (Setaria viridis (SETVI) [16]; 320 g/ha): 100%; Post-emergence action against Setaria viridis (SETVI) (Setaria viridis (SETVI) [16]; 1280 g/ha): 100%
Cc1cccc(Oc2ncc(Cl)cc2F)c1-c1cc(C(F)F)no1 [Example 1-20] | 100 | 100 | 100 | 100 | 100 | 100 | 100 | 100 | 100 | very good herbicidal activity | 90 | 90 | very good herbicidal activity | 90 | 100 | 100 | 90 | 90 | 100 | 100 | Pre-emergence action against Abutilon theophrasti (ABUTH) ([4]; dosage 320 g/ha): 90%; Pre-emergence action against Echinochloa crus-galli (ECHCG) ([9]; dosage 320 g/ha): 90%; Post-emergence action against Lolium rigidum (LOLRI) (Lolium rigidum (LOLRI) [12]; 320 g/ha): 90%; Post-emergence action against Echinochloa crus-galli (ECHCG) ([14]; 320 g/ha): 100%; Post-emergence action against Echinochloa crus-galli (ECHCG) ([14]; 1280 g/ha): 100%; Post-emergence action against Poa annua (POAAN) (Poa annua (POAAN) [15]; 320 g/ha): 100%; Post-emergence action against Poa annua (POAAN) (Poa annua (POAAN) [15]; 1280 g/ha): 100%
Fc1cc(Cl)cnc1Oc1ccccc1-c1cc(C(F)F)no1 [Example 1-36] | 100 | 100 | 100 | 100 | 100 | 100 | 100 | 100 | 100 | very good herbicidal activity | 100 | 100 | very good herbicidal activity | 100 | 100 | 100 | 90 | 100 | 100 | 100 | Post-emergence action against Echinochloa crus-galli (ECHCG) ([14]; 320 g/ha): 100%; Post-emergence action against Echinochloa crus-galli (ECHCG) ([14]; 1280 g/ha): 100%; Post-emergence action against Poa annua (POAAN) (Poa annua (POAAN) [15]; 320 g/ha): 100%; Post-emergence action against Poa annua (POAAN) (Poa annua (POAAN) [15]; 1280 g/ha): 100%; Post-emergence action against Setaria viridis (SETVI) (Setaria viridis (SETVI) [16]; 1280 g/ha): 100%
